What was measured:
[1] = test system: Aβ40 in Lenti-APPsw infected primary cortical neurons; experiment: Aβ40 ELISA in Lenti-APPsw infected primary cortical neurons; format: cell-based, mouse; settings: 24 hours
Procedure: (§1) FIG. 15A-D. LDN-0057228 reduces Aβ40 and sAPPβ in primary neurons. DIV-14 primary cortical neurons from wild-type mice were incubated for 24 hours with primary culture media containing lentivirus harboring APPsw. After infection, neurons were incubated for 48 hours with 1:1 fresh to conditioned media to allow for APP expression. Neurons were then treated with LDN-0057228 at 20 μM for 24 hours in triplicate. A) Media was collected for Aβ40 ELISA. Raw Aβ40 values were normalized to APP to control for variations in lentiviral infection efficiency. B) Cell lysates were probed with 6E10 antibody to visualize the transduced full-length APP. C) sAPPβ from neuron culture media was immunoprecipitated with sβsw antibody and probed with LN27. D) Quantification of sAPPβ, normalized to APP. Data in A) and […]) represent mean+s.d. of 3 wells. Bands from B) and C) were quantified using ImageJ software.
FIG. 16A-B. CNS-2 and LDN-0057228 reduce Aβ40 in primary neurons. DIV-14 primary cortical neurons from wild-type mice were incubated for 24 hours with primary culture media containing lentivirus harboring APPsw. After infection, neurons were incubated for 48 hours with 1:1 fresh to conditioned media to allow for APP expression. Neurons were then treated for 24 hours with the indicated compound and concentration. A) Media was collected for Aβ40 ELISA. Raw Aβ40 values were normalized to APP to control for variations in lentiviral infection efficiency. B) Cell lysates were probed with 6E10 antibody to visualize the transduced full-length APP.
Lenti-APPsw infected primary cortical neurons were selected for the initial round of physiological experiments due to the relatively large batches of wild-type primary cortical neurons that were routinely harvested in the lab, the ease of lentiviral packaging. Primary cortical neurons were harvested from wild-type P0 pups using established protocols.
The Lenti-APPsw vector was co-transfected into HEK293 T cells with ViraPower packaging mix (Invitrogen) to generate the lentivirus. Lentiviral-mediated transduction of APPsw in primary neurons was performed by adding neuron primary culture media containing the lentiviral particles to wild-type DIV-14 primary neurons (FIG. 14). After 24 hours, neurons were incubated with media for 72 hours prior to collecting for Aβ40 measurement. Two batches of virus (LV-1 and LV-2) were tested, showing that there is batch-to-batch variation in the viral titer.
(§2) Using this experimental paradigm, LDN-0057228 was tested at 20 μM concentration to confirm the sAPPβ- and Aβ-lowering activity of the compound (FIG. 15). The protocol was modified slightly to allow for 24-hour compound treatment. […]

[2] = test system: Aβ40 in Tg2576 primary cortical neurons; experiment: Aβ40 ELISA in Tg2576 primary cortical neurons; format: cell-based, mouse; settings: 24 hours, normalized to total protein
Procedure: (§3) FIG. 17A-B. LDN-0057228 and CNS-2 reduce Aβ40 and sAPPβ in Tg2576 primary neurons. Primary cortical neurons were cultured from P0 APPsw transgenic pups (Tg2576). DIV-14 neurons were treated for 24 hours with LDN-0057228 or CNS-2 at the indicated concentrations. Data from two independent experiments were pooled. A) Media was collected for Aβ40 ELISA. Raw Aβ40 values were normalized to total protein to control for variations in plating density or any cytotoxicity resulting from the compounds. B) sAPPβ in the media was immunoprecipitated with sβsw antibody and visualized on Western blot with LN27.
Culturing primary neurons from Tg2576 pups offers the advantage of equal APP expression, but suffers the drawback of lower yield since only half the pups contains the transgene. Furthermore, because neurons from each pup has to be plated separately, plating density and neuronal survivability may vary from mouse to mouse. Thus, total protein was used to normalize the data.
CNS-2 and LDN-0057228 were evaluated in the Tg2576 pup system (FIG. 17). Primary cortical neurons were harvested from P0 Tg2576 pups. Each pup yielded 3 wells on a 12-well plate at a plating density of 0.8×10^5 cells per well. After genotyping, neurons from each transgenic pup (APPsw +/−) were treated with DMSO, LDN-0057228 (20 μM), or CNS-2 (5 μM) at DIV-14 for 24 hours. […]

[3] = weight and overt toxicity in treated Tg2576 mice; format: in vivo; settings: 3 mg/kg intraperitoneal, 9 days
Procedure: A total of 16 mice were treated with either DMSO (n=8) or 3 mg/kg CNS-2 (n=8). The dosage was selected arbitrarily based on compound solubility in 0.9% normal saline. CNS-2 was dissolved in 0.9% normal saline solution with 1.9% final DMSO concentration. 12- to 13-month old Tg2576 mice were treated with DMSO or CNS-2 via intraperitoneal injection for 9 days (1 injection per day) at an injection volume of 20 μl per gram of weight. Mouse weight was monitored daily, and the total injection volume adjusted accordingly over the course of the 9-day treatment. […] Mice were sacrificed on day 9, 5 hours after the final injection. One hemibrain from each mouse was homogenized and processed for formic acid extraction of plaque Aβ. Total Aβ40 was determined by Aβ ELISA kit and normalized to total protein (FIG. 18).

[4] = test system: sAPPβ in Tg2576 primary cortical neurons; experiment: sAPPβ IP-Western in Tg2576 primary cortical neurons; format: cell-based, mouse; settings: LDN-0057228 20 μM, CNS-2 5 μM, 24 hours
Procedure: as §3
CNS-2 and LDN-0057228 were evaluated in the Tg2576 pup system (FIG. 17). Primary cortical neurons were harvested from P0 Tg2576 pups. Each pup yielded 3 wells on a 12-well plate at a plating density of 0.8×10^5 cells per well. After genotyping, neurons from each transgenic pup (APPsw +/−) were treated with DMSO, LDN-0057228 (20 μM), or CNS-2 (5 μM) at DIV-14 for 24 hours. Data from two independent experiments were pooled, representing primary neurons from 4 transgenic pups. LDN-0057228 (20 μM) reduced Aβ40 by 65% (p<0.001) and CNS-2 (5 μM) reduced Aβ40 by 60% (p=0.001) (FIG. 17A).

[5] = test system: sAPPβ in Lenti-APPsw infected primary cortical neurons; experiment: sAPPβ IP-Western in Lenti-APPsw infected primary cortical neurons; format: cell-based, mouse; settings: 20 μM, 24 hours, normalized to APP
Procedure: as §1, §2
LDN-0057228 caused a 75% reduction in Aβ40 levels (p<0.05) in primary neurons (FIG. 15A). […] The sAPPβ bands were quantified using ImageJ software and normalized to APP, showing a 40% reduction in sAPPβ (p<0.01) for the treated neurons (FIG. 15D).

Compound | reduction in Aβ40 ([1]; 5 μM) [%] | reduction in Aβ40 ([2]; 5 μM) [%] | changes in weight and overt signs of toxicity [3] | sAPPβ as visualized by IP-Western [4] | reduction in Aβ40 levels ([1]; 20 μM, normalized to APP) [%] | reduction in Aβ40 ([2]; 20 μM) [%] | reduction in sAPPβ [5] [%]
O=C(CCc1ccccc1)NC[C@@H]1CCCN1CCOC(c1ccc(F)cc1)c1ccc(F)cc1 [CNS-2] | > 80 | 60 | Neither the treated nor control groups exhibited any significant changes in weight or any overt signs of toxicity | reduced sAPPβ | – | – | –
Fc1ccc(C(OCCN2CCC[C@H]2CNCCc2ccccc2)c2ccc(F)cc2)cc1 [LDN-0057228] | – | – | – | reduced sAPPβ | 75 | 65 | 40

Source: patent publication US20110071124A1, “Compounds that Inhibit Production of sAPPB and AB and Uses Thereof” (The Trustees of Columbia University in the City of New York, priority 2008, published 2011)
